# US20020192754A1 (MAX-PLANCK-GESELLSCHAFT E.V., priority 1999, published 2002)
# Like-named read-outs stand apart in the source and are kept apart here. Where a SMILES comes first, the peptide text is derived from it. [ ]: non-standard residue; d: D form. The star is where a group is joined. Sta = CC(C)C[C@H](N)[C@@H](O)CC(=O)O; Isovaleryl = CC(C)CC(=O)*; CH2Cl = ClC*
# Legend:
# [1] = target: T1, human GzmK (Homo sapiens, UniProt P49863); experiment: Inhibition of human GzmK by various inhibitors (residual activity, this study); format: biochemical
# T1 construct: Met-Glu N-terminal helper dipeptide (pro-dipeptide) (N, cleaved yes); made in house
# T1 sequence (P49863 27-264): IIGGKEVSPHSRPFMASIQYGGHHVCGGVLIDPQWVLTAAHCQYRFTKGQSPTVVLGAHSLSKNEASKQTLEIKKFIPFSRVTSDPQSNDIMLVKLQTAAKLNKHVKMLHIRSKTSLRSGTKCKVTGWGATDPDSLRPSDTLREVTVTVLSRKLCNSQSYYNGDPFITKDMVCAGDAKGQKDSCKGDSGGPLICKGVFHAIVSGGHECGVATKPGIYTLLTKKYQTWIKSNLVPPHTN
# Method: These activity tests were performed in wells of a 96-cup tray with respectively 150 μl of the sample volume.
# The thiobenzylester substrates and Ellman's reagency were diluted to end concentrations of 0.3 mM in the test buffer (150 mM Tris, 50 mM NaCl, 0.01% Triton X-100, pH 7.6). The various granzyme preparations were likewise diluted to 3-15 nM in the test buffer. The color change occurring with the conversion of the substrates was measured at 405 nm and room temperature over 5 minutes in the ELISA reader. The difference in absorptions at the beginning and after 5 minutes as it relates to time was used to calculate the conversion rate.
# After a 60-minute preincubation at RT the residual activity was ascertained in triple batches. Initial activities were determined in buffers containing the same proportion of organic solvents. […] Molar concentrations of active aprotinine were ascertained with the use of activity-titrated bovine trypsin.
# [2] = target: T1, human GzmK; conditions: cited from earlier work
# [3] = inhibitor 0.1 mM, I:E 33 x 10^3, 3 nM human GzmK, 60-minute preincubation at RT
compound,measurement,setting,value
N-tosyllysine chloromethylketone [TLCK],Residual Activity (%) This study,[1]; [3],91.0%
same,"Residual Activity (%) Babé et al., Bio. Appl. Bioch. 27:117-124 (1998)",[2]; table row: inhibitor 0.1 mM,0%
N=C(N)c1ccccc1 [Benzamidine],remaining activity at 27000 µM,"[1]; inhibitor 27.0 mM, I:E 9000 x 10^3, 3 nM human GzmK, 60-minute preincubation at RT",43.1%
same,"Residual Activity (%) Babé et al., Bio. Appl. Bioch. 27:117-124 (1998)",[2]; table row: inhibitor 27.0 mM,50%
NC(N)=NCCC[C@H](NC(=O)[C@@H]1CCCN1C(=O)[C@H](N)Cc1ccccc1)C(=O)CCl [FPR-CMK],Residual Activity (%) This study,[1]; [3],0.0%
O=C(O)CN(CCN(CC(=O)O)CC(=O)O)CC(=O)O [EDTA],Residual Activity (%) This study,[1],106.4%
same,"Residual Activity (%) Babé et al., Bio. Appl. Bioch. 27:117-124 (1998)",[2],100%
CC(=O)N[C@@H](CC(C)C)C(=O)N[C@@H](CC(C)C)C(=O)N[C@H](C=O)CCCNC(=N)N [Leupeptin],remaining activity at 200 µM,"[1]; inhibitor 0.2 mM, I:E 67 x 10^3, 3 nM human GzmK, 60-minute preincubation at RT",78%
same,"Residual Activity (%) Babé et al., Bio. Appl. Bioch. 27:117-124 (1998)",[2]; table row: inhibitor 0.2 mM,50%
NC(N)=NCCC[C@H](NC(=O)CNC(=O)[C@@H](N)CCC(=O)O)C(=O)CCl [EGR-CMK] (H-Glu-Gly-Arg-CH2Cl),Residual Activity (%) This study,[1]; [3],54.8%
Cl.NCCc1ccc(S(=O)(=O)F)cc1 [PefablocSC],Residual Activity (%) This study,"[1]; inhibitor 0.5 mM, I:E 170 x 10^3, 3 nM human GzmK, 60-minute preincubation at RT",26.0%
same,Residual Activity (%) This study,"[1]; inhibitor 1.0 mM, I:E 330 x 10^3, 3 nM human GzmK, 60-minute preincubation at RT",5.7%
CC(C)CC(=O)N[C@H](C(=O)N[C@H](C(=O)N[C@@H](CC(C)C)[C@@H](O)CC(=O)N[C@@H](C)C(=O)N[C@@H](CC(C)C)[C@@H](O)CC(=O)O)C(C)C)C(C)C [Pepstatin A] (Isovaleryl-VV[Sta]A[Sta]-OH),Residual Activity (%) This study,"[1]; inhibitor 0.001 mM, I:E 0.3 x 10^3, 3 nM human GzmK, 60-minute preincubation at RT",93.0%
same,"Residual Activity (%) Babé et al., Bio. Appl. Bioch. 27:117-124 (1998)",[2]; table row: inhibitor 0.001 mM,100%
N-tosylphenylalanine chloromethylketone [TPCK],Residual Activity (%) This study,"[1]; inhibitor 0.05 mM, I:E 17 x 10^3, 3 nM human GzmK, 60-minute preincubation at RT",96.0%
same,"Residual Activity (%) Babé et al., Bio. Appl. Bioch. 27:117-124 (1998)",[2]; table row: inhibitor 0.05 mM,95%
Aprotinine,Residual Activity (%) This study,"[1]; inhibitor 0.015 mM, I:E 5 x 10^3, 3 nM human GzmK, 60-minute preincubation at RT",8.6%
same,"Residual Activity (%) Babé et al., Bio. Appl. Bioch. 27:117-124 (1998)",[2]; table row: inhibitor 0.015 mM,0%
